Converted amounts (≈) assume the structure as drawn.
How the values were obtained:
[1] = Determination of kinetic solubility; type: physicochemical; conditions: aqueous buffer, kinetic from dmso stock, 50 mM phosphate buffer pH 7.4, 24 hours, room temperature, 200 μM maximum
Description: The test compounds were dissolved in DMSO to prepare 10 mmol/L stock solutions. The stock solutions were diluted with 50% ACN/50 mM phosphate buffer (pH 7.4) to prepare standard solutions (1 μM, 20 μM, […]).
490 μL of dissolution medium (50 mM phosphate buffer solution, pH 7.4) was pipetted into a 96-well plate with a single-well volume of 2 mL using a pipette (Eppendorf Research Inc.). 10 μL of the stock solution of each test compounds and QC sample (10 mmol/L DMSO stock solution) were added to the dissolution medium, respectively, and the sample plate was sealed with a sealing film. The final concentration of the test compounds and DMSO in the sample solution were 200 μM and 2%, respectively. The mixture was shaken at 600 rpm for 24 hours at room temperature. 200 μL of the sample solution was transferred into a 96-well filter plate using a pipette and filtered with suction. The filtrate and the standard solution were detected by high performance liquid chromatography (HPLC-DAD). The concentration of the test compounds in the filtrate was calculated by an external standard method, which was the kinetic solubility of the compounds.

[2] = Pharmacokinetics in female Balb/c mice; type: in vivo; conditions: mouse, plasma, single intravenous injection / single oral administration; for bioavailability: read-out: Bioavailability F; for AUC: read-out: Concentration integral AUC; for half-life: read-out: Half-life T1/2 (converted)
Description: Objective: To test the pharmacokinetics of compounds in female Balb/c mice in vivo
Balb/c mice (female, 15-30 g, 7-9 weeks old, Shanghai Lingchang)
The pharmacokinetics profile of the compounds in rodent after intravenous injection and oral administrations was tested using a standard protocol. In the assay, the candidate compound was formulated into a clear solution and administrated to the mice through a single intravenous injection, and formulated into a uniform suspension and administrated to the mice through a single oral administration. […] The whole blood samples were collected within 24 hours, centrifuged at 3000 g at 4° C. for 15 minutes, and plasma samples were obtained by separating the supernatant. 20 times volume of acetonitrile solution containing an internal standard was added to precipitate proteins. After centrifugation, the supernatant was collected, to which an equal volume of water was added, and further centrifuged to collect the supernatant. The LC-MS/MS method was used to quantitatively analyze the plasma concentration, and the pharmacokinetics parameters, such as peak concentration, peak time, clearance rate, half-life, area under the curve, and bioavailability were calculated.

[3] = target: T1, Human adenosine A2A receptor (Homo sapiens, UniProt P29274); experiment: Human adenosine A2A receptor calcium flux assay; type: cell-based; conditions: A2A stable CHO cell strain, antagonist mode against agonist NECA at EC80, FLIPR Fluo-4
T1 construct: host or cells: CHO
Description: Human adenosine A2A receptor calcium flux assay
A2A stable cell strain was constructed by Shanghai WuXi PharmaTech, and the host cell was CHO.
Fluo-4 Direct Kit (Invitrogen, Cat. No. F10471). After the fluorescent detection reagent (specifically binding to calcium ions and causing an increase in fluorescence signal) in the kit was incubated with the cells for a suitable period of time, the compound was added to stimulate the cells to cause changes in intracellular calcium flux, thereby causing changes in the fluorescent signal, which can reflect the strength of the agonistic or inhibitory activity of the compound.
F12+10% fetal bovine serum+geneticin 300 ug/ml+blasticidin 2 ug/ml Compound dilution buffer:
Hanks Balanced Salt Buffer (Invitrogen)+20 mM HEPES, configured before each use
The test compounds were dissolved in DMSO to prepare 10 mM stock solutions. The test compounds were diluted to 0.2 mM with DMSO, and the reference compound CGS-15943 was diluted to 0.015 mM with DMSO. Next, 10 points of three-fold serial dilutions were made with ECHO. 900 nl was transferred to the compound plate (Greiner-781280), and 30 ul of compound dilution buffer was added. The final starting concentration of the test compounds was 1 uM and CGS-15943 was 0.075 uM.
Cryopreserved A2A cells were resuscitated, and then resuspended in culture medium to 1×10^6 cells/ml. The suspension was seeded into 384-well polylysine-coated cell plates (Greiner-781946) at 20 μl/well and incubated overnight in a 5% CO2 incubator at 37° C.
The cell plate prepared the day before was taken out from the incubator, and 20 ul of 2× Fluo-4 Direct™ buffer was added to each well. The plate was incubated for 50 minutes in a 5% CO2 incubator at 37° C. and allowed to stand at room temperature for 10 minutes.
Dilution of agonist NECA: 10 points of three-fold serial dilutions were made with Echo for NECA from a starting concentration of 0.15 mM. 900 nL was then transferred to the corresponding compound plate; and then 30 μl of compound dilution buffer was added to the corresponding compound plate. The final starting concentration was 750 nM.
FLIPR instrument software was run. According to the programmed procedure, 10 ul of compound dilution buffer was added to the cell plate and the fluorescence signal was read. 10 ul of the agonist reference compound at the indicated concentration was then added to the cell plate and the fluorescent signal was read. After reading, the data was exported by the “Max-Min”, “Read 90 to Maximum allowed” method in the software, and the EC80 of the A2A cell line was calculated. The agonist was prepared at a concentration of 6× EC80. A 6× EC80 concentration of a reference compound agonist of the corresponding cells was prepared with a buffer solution, and added at 30 ul/well to the corresponding compound plate for use.
FLIPR instrument software was run. According to the programmed procedure, 10 μl of the test compounds and reference compound at an indicated concentration was added to the cell plate and the fluorescence signal was read. 10 ul of the reference compound agonist at a concentration of 6× EC80 was then added to the cell plate and the fluorescent signal was read. For the agonist detection of the compounds, the data was exported by the “Max-Min”, “Read 1 to 90” method in the software. For the antagonist detection of the compound, the data was exported by the “Max-Min”, “Read 90 to Maximum allowed” method in the software. Data were analyzed by GraphPad Prism 5.0 and the IC50 values of the test compounds were calculated.

T1 sequence (P29274 whole entry): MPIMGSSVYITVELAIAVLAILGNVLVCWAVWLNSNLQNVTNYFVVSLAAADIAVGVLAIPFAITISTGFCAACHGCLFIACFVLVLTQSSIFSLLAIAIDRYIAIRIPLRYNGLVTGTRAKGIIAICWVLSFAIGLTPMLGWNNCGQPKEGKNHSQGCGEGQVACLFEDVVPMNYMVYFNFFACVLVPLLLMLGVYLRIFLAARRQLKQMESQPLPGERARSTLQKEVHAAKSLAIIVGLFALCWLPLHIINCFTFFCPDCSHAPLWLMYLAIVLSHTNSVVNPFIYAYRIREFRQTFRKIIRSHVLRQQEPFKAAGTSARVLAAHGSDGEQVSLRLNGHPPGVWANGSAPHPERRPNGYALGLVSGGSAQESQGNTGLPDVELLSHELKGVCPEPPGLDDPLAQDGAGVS

| SMILES | solubility at 24 h [1] | clearance [2] | bioavailability [2] | AUC [2] | half-life [2] | IC50 [3] |
| --- | --- | --- | --- | --- | --- | --- |
| Cc1cc(-c2nnc(N)nc2-c2ccccc2)cc(C(F)(F)F)n1 [Compound A, reference compound] | 29.2 µM (≈ 9.67 µg/mL) | 208 mL/min/kg | 21.6% | 0.501 µM·h | 0.28 h | – |
| Cc1cc(-c2c(-c3ccccc3)nc(N)n3ncnc23)cc(C)n1 [Example B-5] | 197 µM (≈ 62.3 µg/mL) | 24 mL/min/kg | 91% | 19.6 µM·h | 0.33 h | 280 pM |
| Cc1cc(-c2c(-c3ccccc3)nc(N)n3nc(CO)nc23)cc(C)n1 [Example C-19] | 194 µM (≈ 67.2 µg/mL) | 38.7 mL/min/kg | 70.7% | 8.79 µM·h | 0.92 h | 400 pM |
| Cc1cc(-c2c(-c3ccc(F)cc3)nc(N)n3nc(CO)nc23)cc(C(F)(F)F)n1 [Example C-43] | 168 µM (≈ 70.3 µg/mL) | 7.51 mL/min/kg | 82.9% | 43.9 µM·h | 1.99 h | 1360 pM |
| Nc1nc(-c2ccccc2)c(-c2cc(Cl)nc(C(F)(F)F)c2)c2ncnn12 [Example B-28] | 54.5 µM (≈ 21.3 µg/mL) | – | – | – | – | 1550 pM |
| Cc1cc(-c2c(-c3cccc(F)c3F)nc(N)n3ncnc23)cc(C(F)(F)F)n1 [Example A-3] | 92.5 µM (≈ 37.6 µg/mL) | – | – | – | – | 320 pM |
| Cc1cc(-c2c(-c3ccccc3)nc(N)n3ncnc23)cc(Cl)n1 [Example B-31] | 56 µM (≈ 18.9 µg/mL) | 44.3 mL/min/kg | 17.4% | 1.73 µM·h | 0.25 h | 280 pM |
| Nc1nc(-c2ccc(F)cc2)c(-c2cc(Cl)nc(C(F)(F)F)c2)c2nc(CO)nn12 [Example C-58] | 78.9 µM (≈ 34.6 µg/mL) | 2.5 mL/min/kg | 123% | 157 µM·h | 7.26 h | 1720 pM |
| COc1ccccc1-c1nc(N)n2ncnc2c1-c1cc(C)nc(C(F)(F)F)c1 [Example A-4] | 160 µM (≈ 64.1 µg/mL) | – | – | – | – | 1080 pM |
| Cc1cc(-c2c(-c3ccccc3)nc(N)n3ncnc23)cc(C(F)(F)F)n1 [Example A-1] | 185 µM (≈ 68.5 µg/mL) | 51.2 mL/min/kg | 41.1% | 3.33 µM·h | 0.47 h | 230 pM |
| Cc1cc(-c2c(-c3ccccc3)nc(N)n3nc(CO)nc23)cc(C(F)(F)F)n1 [Example C-33] | > 200 µM | 18 mL/min/kg | 95.2% | 22 µM·h | 1.2 h | 650 pM |
| Cc1cc(-c2c(-c3ccc(F)cc3)nc(N)n3nc(C)nc23)cc(C(F)(F)F)n1 [Example C-46] | 172 µM (≈ 69.2 µg/mL) | 0.54 mL/min/kg | 44% | 20.1 µM·h | 1.92 h | 3080 pM |
| Cc1cc(-c2c(-c3ccc(F)cc3)nc(N)n3nc(C(F)(F)F)nc23)cc(Cl)n1 [Example C-41] | – | 5.53 mL/min/kg | 41.2% | 25.1 µM·h | 8.04 h | 4990 pM |

From patent publication US11117899B2, “[1,2,4]triazolo[1,5-c]pyrimidine derivative as A2A receptor inhibitor” (MEDSHINE DISCOVERY INC., priority 2017, dated 2021)
